Tests used:
[1] = molecular target: Vascular endothelial growth factor receptor 2 (Homo sapiens, UniProt P35968); assay type: functional
[2] = molecular target: Gamma-aminobutyric acid receptor subunit alpha-1/alpha-2/beta-2/gamma-2 (Homo sapiens, UniProt P14867+P18507+P47869+P47870); assay type: protein-complex assay
Note: assay procedure not described here.

Chain of Vascular endothelial growth factor receptor 2 (P35968 whole entry): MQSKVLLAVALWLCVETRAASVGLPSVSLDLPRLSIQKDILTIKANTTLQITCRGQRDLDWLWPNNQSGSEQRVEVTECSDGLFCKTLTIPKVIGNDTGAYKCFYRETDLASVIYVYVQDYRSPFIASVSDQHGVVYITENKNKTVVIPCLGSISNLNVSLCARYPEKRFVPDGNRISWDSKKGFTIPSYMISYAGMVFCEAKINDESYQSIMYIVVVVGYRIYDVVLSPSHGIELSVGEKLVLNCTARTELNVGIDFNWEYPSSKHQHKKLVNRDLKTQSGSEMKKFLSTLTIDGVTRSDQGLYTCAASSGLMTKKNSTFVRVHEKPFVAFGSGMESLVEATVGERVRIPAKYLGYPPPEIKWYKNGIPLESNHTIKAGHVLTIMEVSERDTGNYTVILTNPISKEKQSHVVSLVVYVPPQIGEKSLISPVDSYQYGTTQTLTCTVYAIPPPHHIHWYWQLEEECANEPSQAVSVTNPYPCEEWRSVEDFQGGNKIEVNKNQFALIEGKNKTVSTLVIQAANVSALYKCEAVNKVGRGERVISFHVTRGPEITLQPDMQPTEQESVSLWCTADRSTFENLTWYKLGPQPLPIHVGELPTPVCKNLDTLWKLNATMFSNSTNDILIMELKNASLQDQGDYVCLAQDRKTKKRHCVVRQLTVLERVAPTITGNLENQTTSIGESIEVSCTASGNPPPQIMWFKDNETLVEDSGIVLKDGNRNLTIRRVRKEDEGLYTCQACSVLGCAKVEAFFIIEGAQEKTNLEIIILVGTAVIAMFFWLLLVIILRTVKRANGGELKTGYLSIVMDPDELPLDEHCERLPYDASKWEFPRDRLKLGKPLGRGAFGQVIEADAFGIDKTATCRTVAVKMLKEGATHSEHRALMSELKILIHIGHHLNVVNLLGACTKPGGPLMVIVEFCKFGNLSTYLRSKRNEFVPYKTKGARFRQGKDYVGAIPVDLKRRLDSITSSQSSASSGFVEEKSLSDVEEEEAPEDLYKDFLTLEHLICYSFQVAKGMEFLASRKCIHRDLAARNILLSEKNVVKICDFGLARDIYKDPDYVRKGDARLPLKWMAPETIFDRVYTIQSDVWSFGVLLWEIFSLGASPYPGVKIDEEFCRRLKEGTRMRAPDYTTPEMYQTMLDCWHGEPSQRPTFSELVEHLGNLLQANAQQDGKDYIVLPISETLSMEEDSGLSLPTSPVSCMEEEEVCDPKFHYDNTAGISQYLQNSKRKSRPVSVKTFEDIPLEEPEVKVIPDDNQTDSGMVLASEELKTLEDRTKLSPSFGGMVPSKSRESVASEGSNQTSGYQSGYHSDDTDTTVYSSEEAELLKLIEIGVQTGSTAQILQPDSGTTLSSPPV
Chain of Gamma-aminobutyric acid receptor subunit alpha-1/alpha-2/beta-2/gamma-2 (P14867 whole entry): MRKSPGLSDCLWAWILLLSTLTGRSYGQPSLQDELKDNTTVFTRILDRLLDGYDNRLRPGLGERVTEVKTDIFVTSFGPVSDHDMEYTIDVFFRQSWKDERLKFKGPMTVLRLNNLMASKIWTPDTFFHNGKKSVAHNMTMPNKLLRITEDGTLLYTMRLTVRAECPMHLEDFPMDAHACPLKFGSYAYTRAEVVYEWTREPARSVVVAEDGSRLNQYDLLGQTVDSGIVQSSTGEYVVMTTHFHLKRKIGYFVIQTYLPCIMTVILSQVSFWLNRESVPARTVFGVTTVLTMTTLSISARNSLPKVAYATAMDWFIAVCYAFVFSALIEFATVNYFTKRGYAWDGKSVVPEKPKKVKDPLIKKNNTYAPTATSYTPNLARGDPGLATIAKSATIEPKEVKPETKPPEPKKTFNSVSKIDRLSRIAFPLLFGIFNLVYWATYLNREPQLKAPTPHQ
Chain of Gamma-aminobutyric acid receptor subunit alpha-1/alpha-2/beta-2/gamma-2 (P47870 whole entry): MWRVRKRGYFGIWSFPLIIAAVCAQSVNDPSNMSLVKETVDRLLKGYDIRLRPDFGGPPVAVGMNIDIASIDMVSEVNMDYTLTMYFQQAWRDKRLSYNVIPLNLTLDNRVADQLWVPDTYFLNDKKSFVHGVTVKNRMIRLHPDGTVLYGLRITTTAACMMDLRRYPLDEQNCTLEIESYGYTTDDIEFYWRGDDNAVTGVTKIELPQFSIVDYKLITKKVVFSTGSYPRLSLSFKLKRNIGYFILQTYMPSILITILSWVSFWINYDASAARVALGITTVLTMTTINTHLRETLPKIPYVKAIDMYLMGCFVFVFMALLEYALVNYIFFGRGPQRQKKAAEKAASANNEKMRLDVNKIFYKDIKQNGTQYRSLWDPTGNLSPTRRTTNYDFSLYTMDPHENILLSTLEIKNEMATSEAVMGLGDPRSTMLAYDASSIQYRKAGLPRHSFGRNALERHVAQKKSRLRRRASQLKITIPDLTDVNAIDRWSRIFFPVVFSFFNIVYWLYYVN
Chain of Gamma-aminobutyric acid receptor subunit alpha-1/alpha-2/beta-2/gamma-2 (P18507 whole entry): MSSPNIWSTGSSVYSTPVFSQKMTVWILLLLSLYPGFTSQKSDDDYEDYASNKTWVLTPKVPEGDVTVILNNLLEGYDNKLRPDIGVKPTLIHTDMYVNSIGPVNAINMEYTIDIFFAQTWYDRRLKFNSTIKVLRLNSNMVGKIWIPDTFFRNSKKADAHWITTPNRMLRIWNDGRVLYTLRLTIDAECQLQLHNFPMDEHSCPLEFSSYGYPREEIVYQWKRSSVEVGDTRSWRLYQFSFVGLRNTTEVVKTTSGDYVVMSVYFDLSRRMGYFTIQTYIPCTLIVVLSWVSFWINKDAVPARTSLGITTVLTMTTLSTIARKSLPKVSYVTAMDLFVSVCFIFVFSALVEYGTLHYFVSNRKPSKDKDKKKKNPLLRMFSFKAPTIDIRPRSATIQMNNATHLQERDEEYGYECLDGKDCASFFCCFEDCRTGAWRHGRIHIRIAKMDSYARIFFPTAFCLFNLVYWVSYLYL
Chain of Gamma-aminobutyric acid receptor subunit alpha-1/alpha-2/beta-2/gamma-2 (P47869 whole entry): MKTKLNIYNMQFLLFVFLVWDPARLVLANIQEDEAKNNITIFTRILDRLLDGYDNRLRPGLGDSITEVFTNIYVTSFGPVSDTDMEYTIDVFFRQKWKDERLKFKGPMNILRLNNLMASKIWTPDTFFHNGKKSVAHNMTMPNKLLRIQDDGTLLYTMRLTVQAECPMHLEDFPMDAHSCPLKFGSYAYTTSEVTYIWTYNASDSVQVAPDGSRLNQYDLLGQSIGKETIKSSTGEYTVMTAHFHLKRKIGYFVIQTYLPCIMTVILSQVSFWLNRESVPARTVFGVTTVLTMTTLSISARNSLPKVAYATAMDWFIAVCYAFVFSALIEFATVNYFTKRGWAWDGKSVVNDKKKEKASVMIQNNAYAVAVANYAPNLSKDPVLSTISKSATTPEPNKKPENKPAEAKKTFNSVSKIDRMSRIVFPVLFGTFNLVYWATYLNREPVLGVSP

With CCCC[N+]1(C)[C@@H]2C[C@@H](OC(=O)[C@H](CO)c3ccccc3)C[C@H]1[C@@H]1O[C@@H]12 (stereo partly specified) [BUTYLSCOPOLAMINE] the AC50 [1] was greater than 30 µM.

C1N2CN3CN1CN(C2)C3 [METHENAMINE] gave an AC50 [1] greater than 30 µM.

In the case of CN1CCC2=C(C1)c1ccccc1Cc1ccccc12 [SETIPTILINE], the AC50 [1] is reported as greater than 30 µM and the AC50 [2] is reported as greater than 30 µM.

With CC(C)Cc1ccc(C(C)C(=O)NO)cc1 (stereo unspecified) [IBUPROXAM] the AC50 [1] was greater than 30 µM and the AC50 [2] was greater than 30 µM.

With COc1ccc2c(c1)OC(C)(C)C(c1ccccc1)C2c1ccc(OCCN2CCCC2)cc1 (stereo unspecified) [ORMELOXIFENE] the AC50 [1] was greater than 30 µM and the AC50 [2] was greater than 10 µM.

For NS(=O)(=O)c1cc2c(cc1Cl)NC(C1CC3C=CC1C3)NS2(=O)=O (stereo unspecified) [CYCLOTHIAZIDE], the AC50 [1] was greater than 30 µM.

For COc1ccc(CCC(C)NCC(O)c2ccc(O)c([S+](C)[O-])c2)cc1 (stereo unspecified) [SULFINALOL], the AC50 [1] was greater than 30 µM and the AC50 [2] was greater than 30 µM.

In the case of CCC(Cc1c(I)cc(I)c(N)c1I)C(=O)O (stereo unspecified) [IOPANOIC ACID], the AC50 [1] is reported as greater than 30 µM.

For CC1=NN(c2ccccc2)C(=O)C1 [EDARAVONE], the AC50 [1] was greater than 30 µM and the AC50 [2] was greater than 30 µM.

Compound CCC1(c2cccc(O)c2)CCCCN(C)C1 (stereo unspecified) [MEPTAZINOL] has an AC50 [1] greater than 30 µM.

Compound CCCC1C(=O)N2C(N(C)C)=Nc3ccc(C)cc3N2C1=O (stereo unspecified) [APAZONE] has an AC50 [1] greater than 30 µM and an AC50 [2] greater than 30 µM.

Nc1nc(-n2cc(C(=O)O)c(=O)c3cc(F)c(N4CC(O)C4)c(Cl)c32)c(F)cc1F [DELAFLOXACIN] showed an AC50 [1] greater than 30 µM and an AC50 [2] greater than 30 µM.

In the case of O=C(c1ccc(F)c(F)c1Nc1ccc(I)cc1F)N1CC(O)([C@@H]2CCCCN2)C1 [COBIMETINIB], the AC50 [1] is reported as greater than 30 µM.

In the case of O=C1NCC2(CCN(CCc3ccccc3)CC2)O1 [FENSPIRIDE], the AC50 [1] is reported as greater than 30 µM.

Nc1nc2c(ncn2CCC(CO)CO)c(=O)[nH]1 [PENCICLOVIR] showed an AC50 [1] greater than 30 µM and an AC50 [2] greater than 30 µM.

With CC(C(=O)O)c1ccc2c(c1)Cc1cccnc1O2 (stereo unspecified) [PRANOPROFEN] the AC50 [1] was greater than 30 µM and the AC50 [2] was greater than 30 µM.

O=C(O)CCCN1CCC(O[C@@H](c2ccc(Cl)cc2)c2ccccn2)CC1 [BEPOTASTINE] showed an AC50 [1] greater than 30 µM.

Reference: ChEMBL document CHEMBL5291721, “A preclinical secondary pharmacology resource illuminates target-adverse drug reaction associations of marketed drugs” (Nat Commun, 2023)
